pIC50: −log10 of the molar value.
Key:
[1] = system: kidney fibroblast (COS-7) cancer cell line; experiment: In vitro antitumor screening, MTT assay, COS-7; format: cell-based; conditions: Chlorocebus aethiops, 50% inhibition of cell viability, COS-7 cell line
Method: (§1) The new analogs were tested for in vitro antitumor efficacy adopting the reported procedure (Mosmann, 1983[46]; Denizot and Lang, 1986[13]; Gerlier and Thomasset, 1986[21]).
(§2) In vitro antitumor screening of compounds 5a-t was carried out on cervical (Hela) and kidney fibroblast (COS-7) cancer cell lines in accord to MTT assay (Mosmann, 1983[46]; Denizot and Lang, 1986[13]; Gerlier and Thomasset, 1986[21]) and utilizing doxorubicin as a standard drug. The concentrations of the compounds that cause 50% inhibition of cell viability (IC50, µM) were calculated. […]
In vitro antitumor screening […]
(§3) HCT-116 (colon) and MCF-7 (breast) cancer cell lines adopting MTT assa y (Mosmann, 1983; Denizot and Lang, 1986; Gerlier and Thomasset, 1986) and usin g 5- fluorouracil as a reference antitumor agent. Cells were cultured in Roswell Park Memorial Institute (RPM I) 1640 medium wit h 10% fetal bovine serum, penicillin (100 units/mL) and streptomycin (100 µg/mL) at 37 ° C in an atmosphere of 5% CO 2 were added.
(§4) Cells were placed in 96-multiwell microtiter plates (10^4 cells/well), for 24 h rs at 37 °C and in an atmosphere of 5% CO2 before tr eatment with the compounds to allow attachment of the cells to the wall of the plate. The tested compounds were dissolved in DMSO and diluted with phosphate buffer saline (PBS) to obtain different concentrations. Tested compounds of dif-ferent concentrations were added to each well and cells were incubated with the compounds for 48 hrs at 37 °C and in an atmosphere of 5% CO2. All tests were performed in triplicates.
(§5) The treated cells were wash ed with PBS and 100 µL of 3 -(4,5-dimeth ylthiazol-2-yl )-2,5-diphe-n yltetrazolium bromide solution (MTT) (5 mg/m L MTT st ock in PBS diluted to 1 mg/ mL with 10% RPMI-1640 medium) was added. The 9 6 -multiwell plates were read b y microarra y read er Perkinelmer vector 3V multilabel counter model 1420 (Perkinelmer, Boston, MA) for optical densit y at 490 nm (Mosmann, 1983; Denizot and Lang, 1986; Gerlier and Thomasset, 1986).
(§6) The relative percenta ge cell viabilit y was calculate d from the following equation: […]
(§7) The relation between surviving fraction and drug concentration is plotted to get the survival curve for HepG2, HCT-116 and M CF-7 cancer cell lines . […]
(§8) Denizot F, Lang R. Rapid colorimetric assa y for cell growth and survival. Modifications to the tetrazolium dye procedure giving improved sensitivity an d reliability. J Immunol Methods. 1986;89:271-7.
(§9) Gerlier D, Thomasset T. Use of MTT colorimetric assa y to measure cell activation. J Immunol Methods. 1986; […]
(§10) Mosmann T. Rapid colorimetric assa y for cellular growth and survival: Application to proliferation and cytotox- […]
(§11) Oberling C, Gu erin M. The role of viruses in the production of cancer . Ad v Cancer Res. 1954;2:353-423.
(§12) Sheeja KR, Kuttan G, Kuttan R. C ytotox ic and antitumour activit y of Berberin. Amala Res Bull. 1997;17:73-6.

[2] = system: cervical (Hela) cancer cell line; experiment: In vitro antitumor screening, MTT assay, Hela; format: cell-based; conditions: Homo sapiens, 50% inhibition of cell viability
Method: as §1, §2
In vitro antitumor screening
as §3, with “Compounds 5a-t were screened for in vitro antitumor activity against HepG2 (liver), HCT-116” for “HCT-116”
as §4, §5, §6, §7, §8, §9, §10, §11, §12

Row | SMILES | pIC50 [1] | melting point [°C] | pIC50 [2]
1 | O=c1oc2ccccc2cc1-c1csc(NN=Cc2cc3ccccc3c3ccccc23)n1 [5s, 3-(2-(2-(Phenanthren-9-ylmethylidene)-hydrazino)thiazol-4-yl)-2H-chromen-2-one] | < 4.30 | 245 to 247 | < 4.30
2 | Cc1cccc(C=NNc2nc(-c3cc4ccccc4oc3=O)cs2)c1 [5e, 3-(2-(2-(3-Methylbenzylidene)hydrazino)thiazol-4-yl)-2H-chromen-2-one] | < 4.30 | 190 to 191 | < 4.30
3 | COc1cccc2c1C(=O)c1c(O)c3c(c(O)c1C2=O)C[C@@](O)(C(=O)CO)C[C@@H]3O[C@H]1C[C@H](N)[C@H](O)[C@H](C)O1 [Doxorubicin, doxorubicin, reference compound] | 5.52 |  | 5.69
4 | COc1ccc(C=NNc2nc(-c3cc4ccccc4oc3=O)cs2)c(OC)c1 [5l, 3-(2-(2-(2,4-Dimethoxybenzylidene)-hydrazino)thiazol-4-yl)-2H-chromen-2-one] | < 4.30 | 219 to 220 | < 4.30
5 | O=c1oc2ccccc2cc1-c1csc(NN=Cc2ccc(O)c(Br)c2)n1 [5i, 3-(2-(2-(3-Bromo-4-hydroxybenzylidene)hydrazino)thiazol-4-yl)-2H-chromen-2-one] | < 4.30 | 182 to 184 | < 4.30
6 | O=c1oc2ccccc2cc1-c1csc(NN=Cc2ccccc2Br)n1 [5a, 3-(2-(2-(2-Bromobenzylidene)hydrazino)thiazol-4-yl)-2H-chromen-2-one] | < 4.30 | 212 to 213 | < 4.30
7 | O=c1oc2ccccc2cc1-c1csc(NN=Cc2ccc(-c3ccccc3)cc2)n1 [5n, 3-(2-(2-((1,1'-Biphenyl)-4-ylmethylidene)-hydrazino)thiazol-4-yl)-2H-chromen-2-one] | < 4.30 | 198 to 200 | < 4.30
8 | O=c1oc2ccccc2cc1-c1csc(NN=Cc2c(F)cccc2Cl)n1 [5g, 3-(2-(2-(2-Chloro-6-fluorobenzylidene)hydrazino)thiazol-4-yl)-2H-chromen-2-one] | < 4.30 | 195 to 196 | < 4.30
9 | Cc1ccc(O)c(C=NNc2nc(-c3cc4ccccc4oc3=O)cs2)c1 [5j, 3-(2-(2-(2-Hydroxy-5-methylbenzylidene)hydrazino)thiazol-4-yl)-2H-chromen-2-one] | < 4.30 | 206 to 207 | < 4.30
10 | O=c1oc2ccccc2cc1-c1csc(NN=Cc2ccc(C(F)(F)F)cc2)n1 [5d, 3-(2-(2-(4-(Trifluoromethyl)benzylidene)hydrazino)thiazol-4-yl)-2H-chromen-2-one] | < 4.30 | 189 to 190 | < 4.30
11 | O=c1ccc2cc(C=NNc3nc(-c4cc5ccccc5oc4=O)cs3)ccc2o1 [5q, 6-((2-(4-(2-Oxo-2H-chromen-3-yl)thiazol-2-yl)hydrazono)methyl)-2H-chromen-2-one] | < 4.30 | 181 to 183 | < 4.30
12 | O=c1oc2ccccc2cc1-c1csc(NN=Cc2ccc3ccccc3c2)n1 [5o, 3-(2-(2-(Naphthalen-2-ylmethylidene)hydrazino)thiazol-4-yl)-2H-chromen-2-one] | < 4.30 | 225 to 227 | < 4.30
13 | O=c1oc2ccccc2cc1-c1csc(NN=Cc2ccc3ccccc3c2[N+](=O)[O-])n1 [5p, 3-(2-(2-((1-Nitronaphthalen-2-yl)methylidene)hydrazino)thiazol-4-yl)-2H-chromen-2-one] | < 4.30 | 211 to 213 | < 4.30
14 | Cc1cc(C=NNc2nc(-c3cc4ccccc4oc3=O)cs2)ccc1O [5k, 3-(2-(2-(4-Hydroxy-3-methylbenzylidene)-hydrazino)thiazol-4-yl)-2H-chromen-2-one] | < 4.30 | 193 to 194 | < 4.30
15 | N#Cc1ccccc1C=NNc1nc(-c2cc3ccccc3oc2=O)cs1 [5b, 3-(2-(2-(2-Cyanobenzylidene)hydrazino)thiazol-4-yl)-2H-chromen-2-one] | < 4.30 | 219 to 220 | < 4.30
16 | O=c1oc2ccccc2cc1-c1csc(NN=Cc2cc3ccc4cccc5ccc(c2)c3c45)n1 [5t, 3-(2-(2-(Pyren-2-ylmethylidene)hydrazino)thiazol-4-yl)-2H-chromen-2-one] | < 4.30 | 237 to 239 | < 4.30
17 | N#Cc1cccc(C=NNc2nc(-c3cc4ccccc4oc3=O)cs2)c1 [5c, 3-(2-(2-(3-Cyanobenzylidene)hydrazino)thiazol-4-yl)-2H-chromen-2-one] | < 4.30 | 224 to 225 | < 4.30

Source: paper PMC5735336, “Microwave-assisted synthesis and antitumor evaluation of a new series of thiazolylcoumarin derivatives” (EXCLI Journal, 2017)
